Here are results for five compounds from patent US10300061B2, “Aminothiazole compounds as protein kinase inhibitors” (priority 2017, dated 2019).

Structures can show the parent of a compound that is named as a salt. A value given as a limit tells only on which side of the number the result lay.

One assay has as its target T1, VEGFR2 (Homo sapiens, UniProt P35968).
T1 construct: The recombinant GST-VEGFR2 (residues V789-V1356) containing kinase domain; GST; made in house; host or cells: Sf9 insect cells
Nature of the assay: VEGFR2 Kinase-Glo kinase assay. The assay is classed as biochemical. The settings on record: GST-VEGFR2, 1 μM ATP, 30° C. 120 minutes. Here is the method:
The recombinant GST-VEGFR2 (residues V789-V1356) containing kinase domain was expressed in Sf9 insect cells. The kinase assay was carried out in 96-well plates with tested compound in a final volume of 50 μl reaction at 30° C. for 120 minutes with following components: 25 mM HEPES pH 7.4, 10 mM MgCl2, 4 mM MnCl2, 0.5 mM Na3VO4, 2 mM DTT, 0.02% Triton X100, 0.01% BSA, 1 μM ATP, 2 μM polyGlu4:Tyr peptide, 50˜100 ng recombinant VEGFR2. Following incubation, 50 μl Kinase-Glo Plus Reagent (Promega, Madison, Wis., USA) was added to each well and the mixture was incubated at 25° C. for 20 min. A 70-μL aliquot of each reaction mixture was transferred to a black microtiter plate and the luminescence was measured on Wallac Vector 1420 multilabel counter (PerkinElmer, Shelton, Conn., USA).
For orientation: Kinase-Glo measures the ATP left after a reaction by luminescence.

The next assay deals with MOLM-13. Nature of the assay: MOLM-13 MTS cell viability assay. The settings on record: Homo sapiens, leukemia cell line, 72 hours. In kind it is cell-based. Here is the method:
(§1) A study was carried out as follows to evaluate in vitro anticancer activity of certain compounds prepared according to EXAMPLE 1 using cell lines and MTS cell viability assays (MTS represents 3-(4,5-dimethylthiazol-2-yl)-5-(3-carboxymethoxyphenyl)-2-(4-sulfophenyl)-2H-tetrazolium).
(§2) Leukemia cell lines MOLM-13, MV4:11, and Kasumin-1 were purchased from American Type Culture Collection (ATCC, Manassas, Va., USA). The human gastrointestinal stromal tumor GIST-T1 cell line was purchased from Cosmo Bio Co., LTD (Tokyo, Japan). All leukemia cell lines were maintained in RPMI 1640 medium supplemented with 10% fetal bovine serum (FBS), 10 U/ml penicillin, and 10 µg/ml streptomycin at 37° C. and 5% CO2. The cell line GIST-T1 was cultured in DMEM medium supplemented with 10% FBS, 0.01% nonessential amino acids, 10 U/ml penicillin, and 10 µg/ml streptomycin.
(§3) Cells were seeded in 96-well culture plates at a density of 1×10^4 cells/100 μl/well in triplicates and were treated for 72 hours with an indicated concentration of test compound ranging from 1 nM to 10 μM. Colorimetric CellTiter 96® Aqueous One Solution Cell Proliferation assay (MTS assay; Promega, Madison, Wis., USA) was used to determine the cytotoxicity. The optical density at 492 nm was measured using a microplate photometer (Victor2; Perkin-Elmer, Waltham, Mass., USA). IC50 values were determined by MTS assay when cells were treated with test compound for 72 hours and calculated with GraphPad Prism 6. Each experiment was in triplicate.
(Formazan colour is commonly taken as a measure of viable cells.)

For another assay, the system named is MV4:11. The experiment in a line: MV4:11 MTS cell viability assay. The assay is classed as cell-based. The settings on record: Homo sapiens, leukemia cell line, 72 hours. The protocol:
as §1, §2, §3

Another assay has as its system Kasumi-1. The experiment in a line: Kasumi-1 MTS cell viability assay. The assay is classed as cell-based. The settings on record: Homo sapiens, leukemia cell line, 72 hours. Here is the method:
as §1, §2, §3

The next assay concerns GIST-T1. The experiment in a line: GIST-T1 MTS assay. The assay is classed as cell-based. The settings on record: Homo sapiens, GISTT1; gastrointestinal stromal tumor cell line, 72 hours. The protocol: as §1, §2
as §3, with “GIST-T1 cells” for “Cells”, “8000” for “1×10^4”

The next assay deals with GIST430. Nature of the assay: GIST430 cell proliferation assay. Conditions: Homo sapiens, 120 hours. In kind it is cell-based. The protocol:
(§4) GIST882, GIST48 and GIST430 cells were all cultured in incubators maintained at 37° C. and 5% CO2. GIST882 was cultured in RPMI-1640 supplemented with 20% fetal bovine serum (FBS). GIST48 was cultured with F10 supplemented with 20% FBS, 0.5% Mito, serum extender (BD Bioscience, 355006) and 1% pituitary extract bovine (BD Bioscience 354123). GIST430 was cultured in IMDM supplemented with 20% FBS. GIST882, GIST430 and GIST48 cells were provided by Dr. Jonathan A. Fletcher (Harvard Medical School, US).
(§5) GIST cells (4×10^4) were treated with different dosage of compounds. The treated GIST882 cells were incubated for 144 hours and GIST48 and GIST430 cells were incubated for 120 hours at 37° C. in 5% CO2. Cell proliferation was determined by incubating the cells with […] (Clontech, Calif., US) for 1 hour. The absorbance was measured at 450 nm using SpectraMax M5 microplate reader (Molecular Devices, US).

The subject of a further assay is GIST48. Nature of the assay: GIST48 cell proliferation assay. Conditions: Homo sapiens, 120 hours. The assay is classed as cell-based. The protocol:
as §4, §5

The subject of another assay is GIST882. The experiment in a line: GIST882 cell proliferation assay. Conditions: Homo sapiens, 144 hours. In kind it is cell-based. Here is the method:
as §4, §5

For orientation: IC50 means the concentration at which inhibition is half-maximal. A higher IC50 goes with weaker potency. As a reminder, the GI50 is the concentration giving 50% growth inhibition. The low end stands for more potent growth inhibition, the high end for less potent growth inhibition.

T1 sequence (P35968 789-1356): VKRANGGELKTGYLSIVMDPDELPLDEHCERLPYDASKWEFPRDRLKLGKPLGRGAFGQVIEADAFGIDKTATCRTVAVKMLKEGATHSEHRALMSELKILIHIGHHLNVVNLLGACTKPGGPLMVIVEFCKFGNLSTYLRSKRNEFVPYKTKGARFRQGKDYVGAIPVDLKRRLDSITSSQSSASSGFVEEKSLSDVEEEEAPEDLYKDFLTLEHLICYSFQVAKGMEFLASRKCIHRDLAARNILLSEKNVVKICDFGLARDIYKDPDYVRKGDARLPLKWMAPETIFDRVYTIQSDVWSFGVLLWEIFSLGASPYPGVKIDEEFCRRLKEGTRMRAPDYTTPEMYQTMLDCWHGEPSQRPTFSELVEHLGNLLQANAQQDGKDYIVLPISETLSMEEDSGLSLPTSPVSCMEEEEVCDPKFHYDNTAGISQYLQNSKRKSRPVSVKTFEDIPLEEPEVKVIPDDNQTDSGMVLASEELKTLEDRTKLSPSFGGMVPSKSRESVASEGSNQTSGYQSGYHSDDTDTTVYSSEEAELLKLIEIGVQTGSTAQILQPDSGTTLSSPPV

`CCN1CCN(c2cc(Nc3ncc(-c4ccncc4)s3)nc(C)n2)CC1` [Compound 1, [6-(4-Ethyl-piperazin-1-yl)-2-methyl-pyrimidin-4-yl]-(5-pyridin-4-yl-thiazol-2-yl)-amine hydrochloride salt]: the IC50 against VEGFR2 was < 30 nM. The concentration for 50% growth inhibition (GI50) was 10 nM with MOLM-13; 13 nM with MV4:11; 11 nM in the assay with Kasumi-1; 11 nM in the assay with GIST-T1; 3.8 nM with GIST430; 19 nM in the assay on GIST48. Moreover, the GI50 with GIST882 amounted to 5 nM.

As to `CCN1CCN(c2cc(Nc3ncc(-c4cncnc4)s3)nc(C)n2)CC1` [Compound 12, [6-(4-Ethyl-piperazin-1-yl)-2-methyl-pyrimidin-4-yl]-(5-pyrimidin-5-yl-thiazol-2-yl)-amine hydrochloride salt], the GI50 in the assay with MOLM-13 turned out to be 211 nM; in the assay with MV4:11 it was 132 nM; in the assay with Kasumi-1, 349 nM; with GIST-T1, 119 nM.

For the compound `Cc1nc(Nc2ncc(-c3cccnc3)s2)cc(N2CCC(N(C)C)CC2)n1` [Compound 10, [6-(4-Dimethylamino-piperidin-1-yl)-2-methyl-pyrimidin-4-yl]-(5-pyridin-3-yl-thiazol-2-yl)-amine hydrochloride salt], the IC50 against VEGFR2 is < 30 nM.

With `CCN1CCN(c2cc(Nc3ncc(-c4cccnc4)s3)nc(C)n2)CC1` [Compound 7, [6-(4-Ethyl-piperazin-1-yl)-2-methyl-pyrimidin-4-yl]-(5-pyridin-3-yl-thiazol-2-yl)-amine hydrochloride salt], the GI50 in the assay on MOLM-13 stood at 62 nM; in the assay on MV4:11, 34 nM; with Kasumi-1 it was 266 nM; in the assay on GIST-T1, 53 nM; in the assay with GIST430, 60 nM; with GIST48, 820 nM. In addition, the GI50 in the assay on GIST882 is 20 nM.

Turning to `Cc1nc(Nc2ncc(-c3cccnc3)s2)cc(N2CCN(CCO)CC2)n1` [Compound 9, 2-{4-[2-Methyl-6-(5-pyridin-3-yl-thiazol-2-ylamino)-pyrimidin-4-yl]-piperazin-1-yl}-ethanol hydrochloride salt], the IC50 against VEGFR2 is < 30 nM.
